Experimental data taken from patent publication US10844051B2, “Substituted oxazoles for the treatment of cancer” (THE ROYAL INSTITUTION FOR THE ADCANCEMENT OF …, priority 2015, dated 2020).
Values belong to the compound of their own block, whether it stands above or below them.

Tests used:
Assay type in all cases: cell-based
ETV1 = target: T1, ETV1 (Homo sapiens, UniProt P50549); test: ETV1-dependent reporter assay in HEK293 cells; conditions: 48 hours
T1 construct: expressed in transfected cells; host or cells: HEK293
T1 sequence (P50549 1-477): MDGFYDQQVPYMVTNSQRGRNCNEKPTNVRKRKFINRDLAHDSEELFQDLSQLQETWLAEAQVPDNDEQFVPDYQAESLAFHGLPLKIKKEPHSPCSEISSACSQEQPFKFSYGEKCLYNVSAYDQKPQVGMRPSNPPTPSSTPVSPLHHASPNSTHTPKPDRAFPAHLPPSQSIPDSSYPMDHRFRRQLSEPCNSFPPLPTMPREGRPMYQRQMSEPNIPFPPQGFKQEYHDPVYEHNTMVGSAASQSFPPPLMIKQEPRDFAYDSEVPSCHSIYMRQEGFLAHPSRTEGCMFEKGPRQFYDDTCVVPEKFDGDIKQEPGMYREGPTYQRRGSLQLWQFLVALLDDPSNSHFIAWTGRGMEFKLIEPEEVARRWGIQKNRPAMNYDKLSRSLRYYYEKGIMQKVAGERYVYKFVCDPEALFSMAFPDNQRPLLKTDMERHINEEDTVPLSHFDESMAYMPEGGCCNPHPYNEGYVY
Method: (§1) HEK293 cells were transiently transfected with empty vector (for the NT) or ERG-expressing plasmid as well as pRL-TK (internal control) and PUx3-Luc reporter. Cells were then exposed to DMSO vehicle or compounds at designated doses for 48 hours. Experiments were done in triplicate.
Experiments were done as described above in FIG. 1.1a) except that ERG plasmid was replaced by ETV1 plasmid.

human GATA3 = target: T2, human GATA3 (Homo sapiens, UniProt P23771); test: GATA3-dependent reporter assay in IHH cells; conditions: 48 hours
T2 construct: expressed in transfected cells; host or cells: IHH
Method: The IHH cells were transiently transfected with empty vector (for the NT) or human GATA3-expressing plasmid as well as pRL-TK (internal control) and GATA-Luc reporter plasmids. Cells were exposed to DMSO vehicle or compounds for 48 hours. Experiments were done in triplicate.

human STING (hSTING) = target: T3, human STING (hSTING) (Homo sapiens, UniProt Q86WV6); test: hSTING ISRE-luc reporter assay in 293T cells; conditions: 24 hours
T3 construct: expressed in transfected cells; host or cells: 293T
Method: ISRE-luc (reporter), pRL-TK (internal control) and hSTING-expressing plasmids were transiently transfected into 293T cells. Cells were exposed to DMSO vehicle control or compounds for 24 hours. Experiments were done in triplicate.

human GATA2 = target: T4, human GATA2 (Homo sapiens, UniProt P23769); test: GATA2-dependent reporter assay in IHH cells; conditions: GATA-Luc reporter, 48 h
T4 construct: expressed in transfected cells; host or cells: IHH
T4 sequence (P23769 1-480): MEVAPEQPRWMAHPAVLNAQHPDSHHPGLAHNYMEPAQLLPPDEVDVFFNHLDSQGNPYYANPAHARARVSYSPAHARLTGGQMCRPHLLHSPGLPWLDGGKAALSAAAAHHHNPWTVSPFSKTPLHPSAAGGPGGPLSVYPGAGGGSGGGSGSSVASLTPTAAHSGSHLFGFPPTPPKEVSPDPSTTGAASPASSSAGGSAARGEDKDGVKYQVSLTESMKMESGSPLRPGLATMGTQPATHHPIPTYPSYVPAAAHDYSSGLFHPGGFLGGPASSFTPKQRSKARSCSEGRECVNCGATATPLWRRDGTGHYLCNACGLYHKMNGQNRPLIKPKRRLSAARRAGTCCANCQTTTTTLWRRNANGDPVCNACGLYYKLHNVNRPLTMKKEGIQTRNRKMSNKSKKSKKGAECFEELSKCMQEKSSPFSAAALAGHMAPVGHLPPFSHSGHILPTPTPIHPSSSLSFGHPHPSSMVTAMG
Method: K7174 is a known GATA2 inhibitor. The IHH cells were transiently transfected with empty vector (for the NT) or human GATA2-expressing plasmid as well as pRL-TK (internal control) and GATA-Luc reporter plasmids. Cells were exposed to DMSO vehicle or compounds for 48 h. Experiments were in triplicate.

ERG = target: T5, ERG (Homo sapiens, UniProt P11308); test: ERG-dependent reporter assay in HEK293 cells; set-up: expressed in transfected cells; host or cells: HEK293; conditions: PUx3-Luc reporter, 48 hours, designated doses
T5 sequence (P11308 1-486 isoform P11308-3): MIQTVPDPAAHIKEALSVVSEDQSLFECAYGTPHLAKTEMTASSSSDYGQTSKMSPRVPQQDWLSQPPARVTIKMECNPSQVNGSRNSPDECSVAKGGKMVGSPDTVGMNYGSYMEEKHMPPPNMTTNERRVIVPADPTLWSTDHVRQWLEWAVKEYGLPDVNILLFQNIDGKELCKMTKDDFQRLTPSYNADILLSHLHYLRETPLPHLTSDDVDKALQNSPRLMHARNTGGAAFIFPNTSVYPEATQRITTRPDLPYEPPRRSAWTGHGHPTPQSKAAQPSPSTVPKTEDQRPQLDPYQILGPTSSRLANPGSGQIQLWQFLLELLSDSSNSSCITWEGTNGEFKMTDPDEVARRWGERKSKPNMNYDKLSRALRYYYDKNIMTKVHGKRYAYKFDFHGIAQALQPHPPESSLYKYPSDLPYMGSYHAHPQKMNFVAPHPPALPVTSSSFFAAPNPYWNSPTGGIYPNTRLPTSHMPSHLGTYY
Method: as §1

hSTING and/or mSTING = test: hSTING- or mSTING-dependent ISRE-luc reporter assay in 293T cells; conditions: 24 hours
Method: ISRE-luc (reporter), pRL-TK (internal control) and hSTING- or mSTING-expressing plasmids were transiently transfected into 293T cells. Cells were exposed to DMSO vehicle control or compounds for 24 hours. Experiments were done in triplicate.

[1] = tested on: phosphorylation of ERK in Panc 10.05 cells; test: Western blot, phosphorylation of ERK in Panc 10.05 cells; conditions: 10 μM, 24 hours
Method: C-PARP, cleaved PARP. Panc10.05 cells were exposed to DMSO vehicle or compounds at designated doses for 24 hours.
Panc10.05 cells were exposed to DMSO vehicle or compounds at designated doses for 24 hours.

[2] = tested on: phosphorylation of ERK in HCT-116 cells; test: Western blot, phosphorylation of ERK in HCT-116 cells; conditions: 10 μM, 24 hours
Method: HCT-116 cells were exposed to DMSO vehicle or compounds at designated doses for 24 hours.

T2 sequence (P23771 whole entry): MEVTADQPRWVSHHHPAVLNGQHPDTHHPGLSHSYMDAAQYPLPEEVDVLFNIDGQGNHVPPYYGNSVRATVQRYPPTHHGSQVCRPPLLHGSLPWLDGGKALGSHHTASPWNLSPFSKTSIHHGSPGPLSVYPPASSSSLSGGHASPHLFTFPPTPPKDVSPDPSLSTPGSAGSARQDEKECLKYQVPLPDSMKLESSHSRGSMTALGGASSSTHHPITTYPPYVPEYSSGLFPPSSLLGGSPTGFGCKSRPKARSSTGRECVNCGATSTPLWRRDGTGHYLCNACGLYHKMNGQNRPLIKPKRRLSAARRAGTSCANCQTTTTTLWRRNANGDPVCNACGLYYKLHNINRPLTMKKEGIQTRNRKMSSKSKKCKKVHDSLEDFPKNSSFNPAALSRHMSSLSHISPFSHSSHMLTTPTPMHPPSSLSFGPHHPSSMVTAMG
T3 sequence (Q86WV6 whole entry H232R): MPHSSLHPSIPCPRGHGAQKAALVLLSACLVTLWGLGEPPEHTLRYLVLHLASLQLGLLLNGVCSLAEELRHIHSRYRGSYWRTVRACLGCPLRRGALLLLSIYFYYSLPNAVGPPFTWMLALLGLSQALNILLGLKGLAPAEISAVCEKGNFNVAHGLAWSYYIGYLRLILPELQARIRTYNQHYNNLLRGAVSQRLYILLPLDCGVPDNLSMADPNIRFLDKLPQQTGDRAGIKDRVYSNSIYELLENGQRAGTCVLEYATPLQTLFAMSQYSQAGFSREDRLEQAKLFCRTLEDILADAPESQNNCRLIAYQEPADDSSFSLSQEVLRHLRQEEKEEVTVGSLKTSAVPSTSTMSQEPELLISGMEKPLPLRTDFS

SMILES: Fc1cccc(-c2nc(Cc3c[nH]c4ccccc34)oc2-c2cccc(F)c2)c1 [Compound 650]
ETV1 inhibition in ETV1-dependent reporter assay (ETV1): ETV1 inhibitors | activity against GATA3 in GATA3-dependent reporter assay (human GATA3; 10 μM): active against GATA3 | activation of hSTING in ISRE-luc reporter assay (human STING (hSTING)): activate hSTING | GATA2 inhibition in GATA2-dependent reporter assay (human GATA2): GATA2 inhibitors

SMILES: Fc1cccc(-c2nc(CN3CCC(c4noc5ccccc45)CC3)[nH]c2-c2cccc(F)c2)c1 [Compound 1100]
activation of hSTING and/or mSTING in ISRE-luc reporter assay (hSTING and/or mSTING): activate hSTING and/or mSTING | suppression of phosphorylation of ERK (Western blot) [1]: potently suppressed phosphorylation of ERK

SMILES: N#CCN(CCc1c[nH]c2ccccc12)Cc1nc(-c2ccccc2)c(-c2ccccc2)[nH]1 [Compound 1187]
suppression of phosphorylation of ERK (Western blot) [2]: potently suppressed phosphorylation of ERK | suppression of phosphorylation of ERK (Western blot) [1]: potently suppressed phosphorylation of ERK

SMILES: COc1ccc(CC/C(=C/C(=O)N2CCC(O)(c3cccc(C(F)(F)F)c3)CC2)c2ccccc2)cc1F [Compound 1200]
suppression of phosphorylation of ERK (Western blot) [1]: potently suppressed phosphorylation of ERK

SMILES: OC1(c2cccc(C(F)(F)F)c2)CCN(Cc2nc(-c3cccc(F)c3)c(-c3cccc(F)c3)[nH]2)CC1 [Compound 1209]
suppression of phosphorylation of ERK (Western blot) [2]: potently suppressed phosphorylation of ERK

SMILES: COc1cccc(N2CCN(C(=O)C/C(=C/Cc3ccc(OC)c(F)c3)c3ccccc3)CC2)c1 [Compound 1237]
suppression of phosphorylation of ERK (Western blot) [2]: potently suppressed phosphorylation of ERK | suppression of phosphorylation of ERK (Western blot) [1]: potently suppressed phosphorylation of ERK

SMILES: COc1ccc(CC/C(=C/C(=O)N2CCC(O)(c3ccccc3)CC2)c2ccc(Cl)cc2)cc1F [Compound 1306]
suppression of phosphorylation of ERK (Western blot) [2]: potently suppressed phosphorylation of ERK

The next lines start with results.

ERG inhibition in ERG-dependent reporter assay (ERG): ERG inhibitors | ETV1 inhibition in ETV1-dependent reporter assay (ETV1): ETV1 inhibitors | activity against GATA3 in GATA3-dependent reporter assay (human GATA3; 10 μM): inactive against GATA3 | GATA2 inhibition in GATA2-dependent reporter assay (human GATA2): GATA2 inhibitors
SMILES: Oc1cccc(-c2nc(CCc3c[nH]c4ccccc34)oc2-c2cccc(O)c2)c1 [Compound 675]

activity against GATA3 in GATA3-dependent reporter assay (human GATA3; 10 μM): inactive against GATA3 | activity against GATA3 in GATA3-dependent reporter assay (human GATA3; compounds at 5 μM): inactive against GATA3 | activation of hSTING in ISRE-luc reporter assay (human STING (hSTING)): activate human STING (hSTING) | GATA2 inhibition in GATA2-dependent reporter assay (human GATA2): GATA2 inhibitors
SMILES: Oc1cccc(-c2nc(CCCc3c[nH]c4ccccc34)oc2-c2cccc(O)c2)c1 [Compound 676]

activity against GATA3 in GATA3-dependent reporter assay (human GATA3; 10 μM): active against GATA3 | GATA2 inhibition in GATA2-dependent reporter assay (human GATA2): GATA2 inhibitors
SMILES: C(=C\c1nc(-c2ccccc2)c(-c2ccccc2)o1)/c1ccoc1 [Compound 686]

activity against GATA3 in GATA3-dependent reporter assay (human GATA3; 10 μM): inactive against GATA3 | GATA2 inhibition in GATA2-dependent reporter assay (human GATA2): GATA2 inhibitors
SMILES: FC(F)(F)c1cccc(Cc2nc(-c3ccccc3)c(-c3ccccc3)o2)c1 [Compound 687]

activity against GATA3 in GATA3-dependent reporter assay (human GATA3; 10 μM): inactive against GATA3 | activation of hSTING in ISRE-luc reporter assay (human STING (hSTING)): activate hSTING | GATA2 inhibition in GATA2-dependent reporter assay (human GATA2): GATA2 inhibitors
SMILES: FC(F)(F)c1cccc(/C=C/c2nc(-c3ccccc3)c(-c3ccccc3)o2)c1 [Compound 693]

activity against GATA3 in GATA3-dependent reporter assay (human GATA3; compounds at 5 μM): inactive against GATA3 | activation of hSTING in ISRE-luc reporter assay (human STING (hSTING)): activate human STING (hSTING) | GATA2 inhibition in GATA2-dependent reporter assay (human GATA2): GATA2 inhibitors
SMILES: O=C1Nc2ccccc2C1CCCc1nc(-c2cccc(F)c2)c(-c2cccc(F)c2)o1 (stereo not shown) [Compound 770]

activity against GATA3 in GATA3-dependent reporter assay (human GATA3; 10 μM): inactive against GATA3 | GATA2 inhibition in GATA2-dependent reporter assay (human GATA2): GATA2 inhibitors
SMILES: c1ccc(-c2nc(CNCCc3c[nH]c4ccccc34)oc2-c2ccccc2)cc1 [Compound 795]
activation of hSTING and/or mSTING in ISRE-luc reporter assay (hSTING and/or mSTING): activate hSTING and/or mSTING
